Results from US6670383B2, “Pyranocoumarin compounds as a novel pharmacophore with anti-TB activity” (priority 2001, dated 2003).
≈ marks a conversion by molar mass, not a printed value. Where two headings read alike, the source gives them in different places.

Legend:
Assay in all cases: microbe, parasite or virus in culture
Format in all cases: cell-based
[1] = test system: M. tuberculosis strain 1369
[2] = test system: M. tuberculosis strain 1371
[3] = test system: M. tuberculosis strain 1348
[4] = test system: M. tuberculosis strain 1356
[5] = Mycobacterium tuberculosis, 1369
[6] = Mycobacterium tuberculosis, 1371
[7] = Mycobacterium tuberculosis, 1348
[8] = Mycobacterium tuberculosis, 1356

| Molecule | MIC [1, 5] [µg/mL] | fold resistance ([1]; strain 1369) [fold] | MIC [2, 6] [µg/mL] | fold resistance ([2]; strain 1371) | MIC [3, 7] [µg/mL] | fold resistance ([3]; strain 1348) [fold] | MIC [4, 8] [µg/mL] | fold resistance ([4]; strain 1356) [fold] | fold resistance [1] | fold resistance [2] | fold resistance [3] | fold resistance [4] | MIC ([1]; strain 1369) [µg/mL] | MIC ([2]; strain 1371) [µg/mL] | MIC ([3]; strain 1348) [µg/mL] | MIC ([4]; strain 1356) [µg/mL] |
| --- | --- | --- | --- | --- | --- | --- | --- | --- | --- | --- | --- | --- | --- | --- | --- | --- |
| CC[C@@H](CO)NCCN[C@@H](CC)CO [Ethambutol] | 2 (≈ 9.79 µM) | 1 | 2 (≈ 9.79 µM) | 1 fold | 8 (≈ 39.2 µM) | 4 | 64 (≈ 313 µM) | 32 | – | – | – | – | – | – | – | – |
| NNC(=O)c1ccncc1 [Isoniazid] | 0.031 (≈ 0.226 µM) | – | 0.031 (≈ 0.226 µM) | – | > 128 | – | 0.25 (≈ 1.82 µM) | – | 0.031 (1) fold | 0.031 (1) fold | >128 (>4100) fold | 0.25 (8) fold | – | – | – | – |
| CO[C@H]1/C=C/O[C@@]2(C)Oc3c(C)c(O)c4c(O)c(c(/C=N/N5CCN(C)CC5)c(O)c4c3C2=O)NC(=O)/C(C)=C\C=C\[C@H](C)[C@H](O)[C@@H](C)[C@@H](O)[C@@H](C)[C@H](OC(C)=O)[C@@H]1C [Rifampin] | 64 (≈ 77.8 µM) | – | 0.016 (≈ 0.0194 µM) | – | 0.031 (≈ 0.0377 µM) | – | 0.031 (≈ 0.0377 µM) | – | 64 (4,000) fold | 0.016 (1) fold | 0.031 (2) fold | 0.031 (2) fold | – | – | – | – |
| [H]/N=C(/N)N[C@H]1[C@H](O)[C@@H](O)[C@H](O[C@@H]2O[C@@H](C)[C@](O)(C=O)[C@H]2O[C@@H]2O[C@@H](CO)[C@H](O)[C@@H](O)[C@@H]2NC)[C@@H](N/C(N)=N\[H])[C@@H]1O [Streptomycin] | 0.25 (≈ 0.43 µM) | 1 | > 128 | (>512) fold | 0.25 (≈ 0.43 µM) | 1 | 0.25 (≈ 0.43 µM) | 1 | – | – | – | – | – | – | – | – |
| (+)-Calanolide A [(+)-Calanolide A (1)] | – | 1 | – | 1 fold | – | 1 | – | 1 | – | – | – | – | 8 | 8 | 8 | 8 |
